Laboratory results reported in US6656973B2, “(E)-4-carboxystyrl-4-chlorobenzyl sulfone and pharmaceutical compositions thereof” (Temple University - Of the Commonwealth System of Higher …, priority 1999, dated 2003).
“Also recorded” adds a separate entry of the source.

Legend:
ICR female mice = assay: Protection of mice from paclitaxel toxicity (mortality); type: in vivo; settings: 50 mg/Kg i.p. pre-treatment before 150 mg/kg paclitaxel i.p.; mortality at 48 and 144 hours
Method: The styryl sulfone was given 24 hours before paclitaxel, 4 hours before paclitaxel, or simultaneously with paclitaxel. Control animals received paclitaxel alone or styryl sulfone alone. Mortality was assessed 48 after paclitaxel injection.
FIG. 6 is similar to FIG. 5, except that mortality was assessed 144 hours post paclitaxel administration.
ICR female mice age 10-12 weeks (Taconic) were divided into the following treatment groups and received intraperitoneal injections of 50 mg/Kg (E)-4-fluorostyryl-4-chlorobenzylsulfone dissolved in DMSO and/or 150 mg/kg paclitaxel (Taxol, Sigma Chemical Co.) dissolved in DMSO. The styryl sulfone was given 24 hours before paclitaxel, 4 hours before paclitaxel, or simultaneously with paclitaxel. Control animals received paclitaxel alone or styryl sulfone alone. Mortality was assessed 48 and 144 hours after paclitaxel injection. The results are shown in FIG. 5 (48 hours post paclitaxel administration) and FIG. 6 (144 hours post paclitaxel administration). Paclitaxel toxicity in mice is abrogated by pre-treatment with (E)-4-fluorostyryl-4-chlorobenzylsulfone.

Normal human HFL-1 cells = assay: Cytoprotection assay against paclitaxel; type: cell-based; set-up: key: +: A compound was deemed to be active if the number of viable cells following the combination treatment was higher than the number of cells after treatment with paclitaxel alone; settings: 2.0 or 10 μM sulfone, paclitaxel 250 nM at time zero or 24 hours later, viable cells after 96 hours of paclitaxel
Method: The cytoprotective activity of the same Istyryl benzylsulfones was determined as follows. Normal human HFL-1 cells were plated at a cell density of 1.0×10^5 cells per well in six culture plates. Styryl benzylsulfone was added 24 hours later at a final concentration of either 2.0 or 10 μM. The time of styryl sulfone addition was designated as time zero. Paclitaxel (250 nM) was added at either time zero, or 24 hours after time zero. The total number of viable cells was determined, as described above, after 96 hours of paclitaxel treatment. A compound was deemed to be active if the number of viable cells following the combination treatment was higher than the number of cells after treatment with paclitaxel alone.

HFL-1 cells [1] = assay: Long term exposure of normal human fibroblasts, cell count; type: cell-based; settings: 2.5 or 5.0 μM for 48 or 72 hours, counted 96 hours after the incubation period
Method: Cells were exposed to either 2.5 or 5.0 μM of the styryl sulfone […] and counted.
HFL-1 cells were plated at a cell density of 1.0×10^5 per well 24 hours prior to drug addition. Cells were exposed to either 2.5 or 5.0 μM (E)-4-fluorostyryl-4-chlorobenzylsulfone for 48 or 72 hours. Cells were counted 96 hours after the incubation period.

HFL-1 cells [2] = assay: Protection of normal human fibroblasts from vincristine cytotoxicity; type: cell-based; settings: 2.0 μM sulfone 24 hours before vincristine, viability 96 hours after vincristine
Method: Normal HFL cells were treated with 0 to 0.250 nM vincristine and 2.0 μM (E)-4-fluorostyryl-4-chlorobenzylsulfone as indicated. Cell viability was assessed 96 hours after vincristine was added. “V”, vincristine alone; “A→V”, styryl sulfone followed by vincristine 24 hours later; “A+V”, simultaneous styryl sulfone and vincristine treatment; “V→A”, vincristine followed by styryl sulfone 24 hours later.
HFL-1 cells were treated with […] vincristine and, optionally, 2.0 μM (E)-4-fluorostyryl-4-chlorobenzylsulfone either 24 hours before or after vincristine treatment, or simultaneously with vincristine treatment. Cell viability was assessed 96 hours after the addition of vincristine. The results are shown in FIG. 4: “V”, vincristine alone; “A→V”, styryl sulfone followed by vincristine 24 hours later; “A+V”, simultaneous styryl sulfone and vincristine treatment; “V→A”, vincristine followed by styryl sulfone 24 hours later.

HFL-1 cells [3] = assay: Protection of normal human fibroblasts from paclitaxel cytotoxicity; type: cell-based; settings: HFL-1 cells pretreated with 2.0 μM for 8 hours, then paclitaxel (250 μM); viable cells 96 hours after paclitaxel
Method: FIG. 3 is a graph of the effect of paclitaxel on HFL-1 cells which were either pre-treated with (E)-4-fluorostyryl-4-chlorobenzylsulfone and then exposed to paclitaxel, or treated simultaneously with both agents. Cells were enumerated 96 hours after exposure to paclitaxel.
HFL-1 cells were plated at a cell density of 1.0×10^5 per well 24 hours prior to drug addition. Cells were pretreated with (E)-4-fluorostyryl-4-chlorobenzylsulfone (2.0 μM) for 8 hours and then exposed to paclitaxel (250 μM). Other cells were treated with paclitaxel alone, or both agents simultaneously. Cells were enumerated by Trypan blue exclusion using a hematocytometer 96 hours after exposure to paclitaxel. The ordinate in FIG. 3 represents the number of viable cells following treatment with (E)-4-fluorostyryl-4-chlorobenzylsulfone and paclitaxel, divided by the number of viable cells remaining after treatment with paclitaxel alone.

HFL-1 cells [4] = assay: Protection of normal human fibroblasts from anticancer agent cytotoxicity (Protection Ratio); type: cell-based; settings: 2.0 μM sulfone 24 hour preincubation, then cisplatin 5.0 μM; viable cells at 96 hours
Method: HFL-1 cells were plated at a cell density of 1.0×10^5 in 1 ml of medium. Twenty-four hours following plating, 2.0 μM of (E)-4-fluorostyryl-4-chlorobenzylsulfone was added to the medium. Following a 24 hour preincubation with the styryl sulfone, the various cytotoxic agents listed in Table 6 were added to the cells, at the concentrations given in Table 6. the number of viable cells was determined by Trypan blue exclusion using a hematocytometer 96 hours after exposure to cytotoxic agent. The “Protection Ratio” is the number of viable cells following treatment with (E)-4-fluorostyryl-4-chlorobenzylsulfone and cytotoxic agent, divided by the number of viable cells remaining after treatment with cytotoxic agent alone. A protection ratio of 2 or more is considered highly significant, while is protection ratio of 1.5-2 is considered less significant.

SMILES	Cytoprotection (Normal human HFL-1 cells)	further results
O=S(=O)(/C=C/c1ccc(F)cc1)Cc1ccc(Cl)cc1 [Example 7, (E)-4-fluorostyryl-4-chlorobenzyl sulfone]	+	paclitaxel toxicity in mice (mortality) (ICR female mice): abrogated; replication rate (cell count) (HFL-1 cells [1]): transiently reduced replication rates; protection from the toxic effects of vincristine (HFL-1 cells [2]): conferred protection from the toxic effects of vincristine; also recorded: Vincristine toxicity is abrogated; protection from the toxic effects of paclitaxel (HFL-1 cells [3]): conferred protection from the toxic effects of paclitaxel; Protection Ratio (HFL-1 cells [4]): 1.3
O=S(=O)(/C=C/c1ccc(Cl)cc1)Cc1ccc(Cl)cc1 [Example 8, (E)-4-chlorostyryl-4-chlorobenzyl sulfone]	+	–
O=S(=O)(/C=C/c1ccc(F)cc1Cl)Cc1ccc(Cl)cc1 [Example 9, (E)-2-chloro-4-fluorostyryl-4-chlorobenzyl sulfone]	+	–
O=C(O)c1ccc(/C=C/S(=O)(=O)Cc2ccc(Cl)cc2)cc1 [Example 10, (E)-4-carboxystyryl-4-chlorobenzyl sulfone]	+	–
O=S(=O)(/C=C/c1ccc(F)cc1)Cc1ccc(Cl)cc1Cl [Example 11, (E)-4-fluorostyryl-2,4-dichlorobenzyl sulfone]	+	–
